Measured values published in the NIST ThermoML archive (doi:10.1021/je060271a).
Numbers after ± are expanded uncertainties.

Details: 283.15 K, Liquid, Vibrating tube method

CCCCCC(=O)OCC(COC(=O)CCCCC)(COC(=O)CCCCC)COC(=O)CCCCC [pentaerythritol tetrahexanoate]
Details | mass density [kg/m3]
7124.1 kPa | 1008.3 ± 1.2
7135 kPa | 1008.3 ± 1.2
7146.2 kPa | 1008.3 ± 1.2
7159.7 kPa | 1008.3 ± 1.2
7170.9 kPa | 1008.3 ± 1.2
7182 kPa | 1008.3 ± 1.2
7193.4 kPa | 1008.3 ± 1.2
7206.5 kPa | 1008.3 ± 1.2
7217.2 kPa | 1008.4 ± 1.2
7228.4 kPa | 1008.3 ± 1.2
7241.6 kPa | 1008.4 ± 1.2
7252.8 kPa | 1008.4 ± 1.2
7264.2 kPa | 1008.4 ± 1.2
7277.8 kPa | 1008.3 ± 1.2
7289 kPa | 1008.4 ± 1.2
7300.4 kPa | 1008.3 ± 1.2
7311.8 kPa | 1008.3 ± 1.2
7323.4 kPa | 1008.3 ± 1.2
7336.9 kPa | 1008.4 ± 1.2
7348.4 kPa | 1008.4 ± 1.2
7360.2 kPa | 1008.3 ± 1.2
7373.8 kPa | 1008.5 ± 1.2
7385.4 kPa | 1008.3 ± 1.2
7396.9 kPa | 1008.4 ± 1.2
7408.7 kPa | 1008.5 ± 1.2
7422.7 kPa | 1008.5 ± 1.2
7434.6 kPa | 1008.5 ± 1.2
7446.5 kPa | 1008.5 ± 1.2
7458.6 kPa | 1008.5 ± 1.2
7472.7 kPa | 1008.5 ± 1.2
7484.8 kPa | 1008.6 ± 1.2
7496.7 kPa | 1008.4 ± 1.2
7508.6 kPa | 1008.6 ± 1.2
7523.2 kPa | 1008.5 ± 1.2
7534.9 kPa | 1008.5 ± 1.2
7547.3 kPa | 1008.6 ± 1.2
7561.6 kPa | 1008.5 ± 1.2
7573.6 kPa | 1008.5 ± 1.2
7586 kPa | 1008.5 ± 1.2
7598.2 kPa | 1008.6 ± 1.2
7613.2 kPa | 1008.4 ± 1.2
7625.9 kPa | 1008.6 ± 1.2
7637.9 kPa | 1008.6 ± 1.2
7650.7 kPa | 1008.5 ± 1.2
7665 kPa | 1008.6 ± 1.2
7678 kPa | 1008.5 ± 1.2
7690.4 kPa | 1008.6 ± 1.2
7705.3 kPa | 1008.7 ± 1.2
7717.7 kPa | 1008.6 ± 1.2
7730.5 kPa | 1008.7 ± 1.2
7742.7 kPa | 1008.6 ± 1.2
7758.4 kPa | 1008.7 ± 1.2
7771.4 kPa | 1008.7 ± 1.2
7784.3 kPa | 1008.7 ± 1.2
7798.4 kPa | 1008.5 ± 1.2
7811.2 kPa | 1008.7 ± 1.2
7826.7 kPa | 1008.7 ± 1.2
7839.6 kPa | 1008.8 ± 1.2
7852.8 kPa | 1008.8 ± 1.2
7866 kPa | 1008.8 ± 1.2
7881.9 kPa | 1008.7 ± 1.2
7895 kPa | 1008.7 ± 1.2
7908.3 kPa | 1008.7 ± 1.2
7924.2 kPa | 1008.7 ± 1.2
7937.3 kPa | 1008.7 ± 1.2
7950.8 kPa | 1008.6 ± 1.2
7967.7 kPa | 1008.7 ± 1.2
7978.6 kPa | 1008.7 ± 1.2
7994.5 kPa | 1008.8 ± 1.2
8008.3 kPa | 1008.8 ± 1.2
8022.4 kPa | 1008.7 ± 1.2
8036.2 kPa | 1008.9 ± 1.2
8052.3 kPa | 1008.8 ± 1.2
8065.9 kPa | 1008.8 ± 1.2
8080.1 kPa | 1008.9 ± 1.2
8094.4 kPa | 1008.8 ± 1.2
8110.8 kPa | 1008.9 ± 1.2
8125.1 kPa | 1008.8 ± 1.2
8139.2 kPa | 1008.8 ± 1.2
8153.4 kPa | 1008.9 ± 1.2
8167.7 kPa | 1008.8 ± 1.2
8184.9 kPa | 1008.9 ± 1.2
8199.1 kPa | 1008.8 ± 1.2
8213.4 kPa | 1008.9 ± 1.2
8230.8 kPa | 1008.9 ± 1.2
8245.5 kPa | 1008.9 ± 1.2
8259.8 kPa | 1008.8 ± 1.2
8274.5 kPa | 1009 ± 1.2
8291.9 kPa | 1008.9 ± 1.2
8306.6 kPa | 1009 ± 1.2
8320.7 kPa | 1009 ± 1.2
8335.5 kPa | 1009.1 ± 1.2
8385.6 kPa | 1009 ± 1.2
8400.7 kPa | 1009 ± 1.2
8415.4 kPa | 1009.1 ± 1.2
8430.1 kPa | 1009 ± 1.2
8447.5 kPa | 1009 ± 1.2
8463 kPa | 1009 ± 1.2
8478 kPa | 1009.1 ± 1.2
8496.3 kPa | 1009.1 ± 1.2
8511.3 kPa | 1009 ± 1.2
8529.1 kPa | 1009.1 ± 1.2
8544.6 kPa | 1009.1 ± 1.2
8560.6 kPa | 1009.1 ± 1.2
8576.2 kPa | 1009.1 ± 1.2
8594.8 kPa | 1009.1 ± 1.2
8609.8 kPa | 1009.2 ± 1.2
8625.5 kPa | 1009.1 ± 1.2
8644.3 kPa | 1009.3 ± 1.2
8659.6 kPa | 1009.2 ± 1.2
8678.4 kPa | 1009.2 ± 1.2
8694.4 kPa | 1009.1 ± 1.2
8710.5 kPa | 1009.1 ± 1.2
8729.5 kPa | 1009.2 ± 1.2
8745.1 kPa | 1009.1 ± 1.2
8761.5 kPa | 1009.1 ± 1.2
8778.1 kPa | 1009.3 ± 1.2
8797.7 kPa | 1009.2 ± 1.2
8813.6 kPa | 1009.3 ± 1.2
8833.4 kPa | 1009.1 ± 1.2
8849.8 kPa | 1009.3 ± 1.2
8865.8 kPa | 1009.3 ± 1.2
8882.4 kPa | 1009.2 ± 1.2
8902.4 kPa | 1009.2 ± 1.2
8919.1 kPa | 1009.3 ± 1.2
8935.3 kPa | 1009.3 ± 1.2
8955.5 kPa | 1009.4 ± 1.2
8972.2 kPa | 1009.2 ± 1.2
8992.6 kPa | 1009.4 ± 1.2
9009.6 kPa | 1009.3 ± 1.2
9026.7 kPa | 1009.4 ± 1.2
9043.4 kPa | 1009.5 ± 1.2
9063.8 kPa | 1009.4 ± 1.2
9081 kPa | 1009.3 ± 1.2
9098.4 kPa | 1009.5 ± 1.2
9118.9 kPa | 1009.4 ± 1.2
9136.1 kPa | 1009.4 ± 1.2
9156.6 kPa | 1009.4 ± 1.2
9173.7 kPa | 1009.4 ± 1.2
9191.1 kPa | 1009.5 ± 1.2
9212.2 kPa | 1009.5 ± 1.2
9230.4 kPa | 1009.5 ± 1.2
9249.2 kPa | 1009.5 ± 1.2
9266.9 kPa | 1009.5 ± 1.2
